Measurements published in PubChem BioAssay AID328 (DTP/NCI, 2004).
“And” between values parts separate entries of the source, which are not always exact repeats. Equal entries are not always repeated. Toxic doses and inconclusive results are not listed.

Test system: BDF1 mice, P388 leukemia ip, median survival T/C
Assay: NCI In Vivo Anticancer Drug Screen. Data for tumor model P388 Leukemia (intraperitoneal) in B6D2F1 (BDF1) mice
Conditions: endpoint: median survival time, higher = longer survival
How it was run: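 Survival ratio, drug arm over vehicle arm, in mice with a transplanted tumour.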

[1] = dose: 100.0 mg/kg/injection, schedule: Q04DX003 (ip), vehicle: Klucel (hydroxypropylcellulose) (HPC)
[2] = dose: 200.0 mg/kg/injection, schedule: Q04DX003 (ip), vehicle: Klucel (hydroxypropylcellulose) (HPC)
[3] = dose: 400.0 mg/kg/injection, schedule: Q04DX003 (ip), vehicle: Klucel (hydroxypropylcellulose) (HPC)
[4] = dose: 100.0 mg/kg/injection, schedule: Q04DX003 (ip), vehicle: water
[5] = dose: 200.0 mg/kg/injection, schedule: Q04DX003 (ip), vehicle: water
[6] = dose: 400.0 mg/kg/injection, schedule: Q04DX003 (ip), vehicle: water
[7] = dose: 100.0 mg/kg/injection, schedule: Q01DX009 (ip), vehicle: saline
[8] = dose: 200.0 mg/kg/injection, schedule: Q01DX009 (ip), vehicle: saline
[9] = dose: 400.0 mg/kg/injection, schedule: Q01DX009 (ip), vehicle: saline
[10] = dose: 100.0 mg/kg/injection, schedule: Q01DX009 (ip), vehicle: saline with Tween-80
[11] = dose: 25.0 mg/kg/injection, schedule: Q01DX009 (ip), vehicle: saline with Tween-80
[12] = dose: 50.0 mg/kg/injection, schedule: Q01DX009 (ip), vehicle: saline with Tween-80
[13] = dose: 100.0 mg/kg/injection, schedule: Q04DX003 (ip), vehicle: saline with Tween-80
[14] = dose: 200.0 mg/kg/injection, schedule: Q04DX003 (ip), vehicle: saline with Tween-80
[15] = dose: 400.0 mg/kg/injection, schedule: Q04DX003 (ip), vehicle: saline with Tween-80

COC(=O)[C@@]12OC[C@]34[C@H]([C@@H](O)[C@@H]1O)[C@@]1(C)CC(=O)C(O)=C(C)[C@@H]1C[C@H]3OC(=O)[C@H](OC(=O)c1ccccc1)[C@@H]24
T/C (dose: 31.0 micrograms/kg/injection, schedule: Q01DX009 (ip), vehicle: saline + alcohol): 86 % of control and 90 % of control and 100 % of control
T/C (dose: 61.0 micrograms/kg/injection, schedule: Q01DX009 (ip), vehicle: saline + alcohol): 100 % of control
T/C (dose: 62.0 micrograms/kg/injection, schedule: Q01DX009 (ip), vehicle: saline + alcohol): 113 % of control
T/C (dose: 125.0 micrograms/kg/injection, schedule: Q01DX009 (ip), vehicle: saline + alcohol): 95 % of control and 109 % of control
T/C (dose: 250.0 micrograms/kg/injection, schedule: Q01DX009 (ip), vehicle: saline + alcohol): 100 % of control and 109 % of control
T/C (dose: 500.0 micrograms/kg/injection, schedule: Q01DX009 (ip), vehicle: saline + alcohol): 100 % of control and 113 % of control
T/C (dose: 1000.0 micrograms/kg/injection, schedule: Q01DX009 (ip), vehicle: saline + alcohol): 100 % of control and 118 % of control
T/C (dose: 4000.0 micrograms/kg/injection, schedule: Q01DX009 (ip), vehicle: saline + alcohol): 109 % of control

Cc1ccc(S(=O)(=O)OCC2C3C=CC(C3)C2COS(=O)(=O)c2ccc(C)cc2)cc1 (centres undefined)
T/C (dose: 100.0 mg/kg/injection, schedule: Q01DX009 (ip), vehicle: Klucel (hydroxypropylcellulose) (HPC)): 86 % of control
T/C [1]: 86 % of control
T/C (dose: 200.0 mg/kg/injection, schedule: Q01DX009 (ip), vehicle: Klucel (hydroxypropylcellulose) (HPC)): 104 % of control
T/C [2]: 90 % of control
T/C (dose: 400.0 mg/kg/injection, schedule: Q01DX009 (ip), vehicle: Klucel (hydroxypropylcellulose) (HPC)): 100 % of control
T/C [3]: 90 % of control

CC(=O)n1ncc2ccc([N+](=O)[O-])cc21
T/C (dose: 6.25 mg/kg/injection, schedule: Q01DX009 (ip), vehicle: water): 103 % of control
T/C (dose: 12.5 mg/kg/injection, schedule: Q01DX009 (ip), vehicle: water): 97 % of control and 111 % of control
T/C (dose: 25.0 mg/kg/injection, schedule: Q01DX009 (ip), vehicle: water): 94 % of control (2×) and 108 % of control
T/C (dose: 50.0 mg/kg/injection, schedule: Q01DX009 (ip), vehicle: water): 94 % of control and 99 % of control
T/C (dose: 100.0 mg/kg/injection, schedule: Q01DX009 (ip), vehicle: water): 94 % of control and 97 % of control and 105 % of control
T/C [4]: 111 % of control
T/C (dose: 200.0 mg/kg/injection, schedule: Q01DX009 (ip), vehicle: water): 100 % of control
T/C [5]: 106 % of control
T/C (dose: 400.0 mg/kg/injection, schedule: Q01DX009 (ip), vehicle: water): 96 % of control
T/C [6]: 98 % of control

C#CCOCC(O)CN (centres undefined)
T/C [7]: 100 % of control
T/C (dose: 100.0 mg/kg/injection, schedule: Q04DX003 (ip), vehicle: saline): 110 % of control
T/C [8]: 120 % of control
T/C (dose: 200.0 mg/kg/injection, schedule: Q04DX003 (ip), vehicle: saline): 100 % of control
T/C [9]: 104 % of control
T/C (dose: 400.0 mg/kg/injection, schedule: Q04DX003 (ip), vehicle: saline): 100 % of control

Nc1cccc2c1C(=O)C=CC2=O
T/C (dose: 1.15 mg/kg/injection, schedule: Q01DX009 (ip), vehicle: saline): 112 % of control
T/C (dose: 2.3 mg/kg/injection, schedule: Q01DX009 (ip), vehicle: saline): 108 % of control
T/C (dose: 3.25 mg/kg/injection, schedule: Q04DX003 (ip), vehicle: saline): 121 % of control
T/C (dose: 4.6 mg/kg/injection, schedule: Q01DX009 (ip), vehicle: saline): 108 % of control

Clc1ccc(-c2ncnc3c2Cc2ccccc2-3)cc1
T/C [10]: 112 % of control
T/C (dose: 200.0 mg/kg/injection, schedule: Q01DX009 (ip), vehicle: saline with Tween-80): 116 % of control
T/C (dose: 400.0 mg/kg/injection, schedule: Q01DX009 (ip), vehicle: saline with Tween-80): 100 % of control

c1ccc2c(c1)Cn1c-2nc2ccccc21
T/C (dose: 100.0 mg/kg/injection, schedule: Q04DX003 (ip), vehicle: other): 118 % of control
T/C (dose: 200.0 mg/kg/injection, schedule: Q04DX003 (ip), vehicle: other): 109 % of control
T/C (dose: 400.0 mg/kg/injection, schedule: Q04DX003 (ip), vehicle: other): 113 % of control

CC1(C)Cc2cc3cc(Cl)ccc3nc2-c2ccccc21
T/C [7]: 110 % of control
T/C [1]: 110 % of control
T/C [8]: 105 % of control
T/C [2]: 115 % of control
T/C [9]: 110 % of control
T/C [3]: 110 % of control

CCOC(=O)CCCc1ccc(N=NN(C)C)cc1
T/C (dose: 150.0 mg/kg/injection, schedule: Q04DX003 (ip), vehicle: saline): 95 % of control

OC1COC(O)C(O)C1O (centres undefined)
T/C (dose: 250.0 mg/kg/injection, schedule: Q04DX003 (ip), vehicle: saline): 102 % of control
T/C (dose: 500.0 mg/kg/injection, schedule: Q04DX003 (ip), vehicle: saline): 100 % of control
T/C (dose: 1000.0 mg/kg/injection, schedule: Q04DX003 (ip), vehicle: saline): 100 % of control
T/C (dose: 2000.0 mg/kg/injection, schedule: Q04DX003 (ip), vehicle: saline): 111 % of control

CC(=O)N1CCn2nccc21
T/C [4]: 104 % of control
T/C [5]: 90 % of control
T/C [6]: 112 % of control

Oc1c(Cl)c(Cl)c(Cl)c(Cl)c1Cl (tested in a mixture with another compound)
T/C [11]: 109 % of control

N#[N+]c1cnc([O-])[nH]c1=O
T/C (dose: 1.25 mg/kg/injection, schedule: Q01DX010 (ip), vehicle: saline): 175 % of control
T/C (dose: 2.5 mg/kg/injection, schedule: Q01DX010 (ip), vehicle: saline): 185 % of control
T/C (dose: 5.0 mg/kg/injection, schedule: Q01DX010 (ip), vehicle: saline): 172 % of control and 210 % of control
T/C (dose: 10.0 mg/kg/injection, schedule: Q01DX010 (ip), vehicle: saline): 240 % of control and 177 % of control

CN(C)c1ccc(/C=C/c2ccnc3c(O)ccc(O)c23)cc1
T/C [12]: 112 % of control
T/C [10]: 124 % of control

CN(S(=O)(=O)CC(F)(F)F)S(=O)(=O)C(F)(F)F
T/C (dose: 6.25 mg/kg/injection, schedule: Q01DX009 (ip), vehicle: saline): 100 % of control
T/C (dose: 25.0 mg/kg/injection, schedule: Q01DX009 (ip), vehicle: saline): 108 % of control
T/C [7]: 100 % of control

O=C1NC(=O)C(c2ccc(C(F)(F)F)cc2)(c2ccc(C(F)(F)F)cc2)N1
T/C (dose: 12.5 mg/kg/injection, schedule: Q01DX009 (ip), vehicle: saline with Tween-80): 104 % of control
T/C [11]: 90 % of control
T/C [12]: 113 % of control
T/C [13]: 90 % of control
T/C [14]: 90 % of control
T/C [15]: 104 % of control

NC(=S)N/N=C\c1nccc2c(C(F)(F)F)cccc12
T/C (dose: 25.0 mg/kg/injection, schedule: Q04DX003 (ip), vehicle: saline with Tween-80): 106 % of control

Cc1cccnc1NS(=O)(=O)c1ccccc1
T/C [13]: 100 % of control
T/C [14]: 104 % of control
T/C [15]: 108 % of control
